This is an account of results in US11985974B2, “Antimicrobial ferulic acid derivatives and uses thereof” (WISCONSIN ALUMNI RESEARCH FOUNDATION, priority 2014, dated 2024).

One experiment relates to yeast cells. Nature of the experiment: Cell leakage assay (FungaLight, flow cytometry). Format: cell-based, Saccharomyces cerevisiae. The following applies: actively growing cells (YPD), 4 h. The method, then: A FungaLight Cell Viability Assay (L34952; Invitrogen) using a Guava Flow Cytometer (Millipore) was used to determine if poacic acid caused membrane damage. The population of stained cells (damaged integrity) vs. nonstained cells can be determined by flow cytometry. Caspofungin (50 ng/mL) was included as a positive control. MMS and DMSO were included as a noncell wall-targeting control and a solvent control, respectively. To test the effects of the compounds on both active and arrested cells, log-phase cultures were washed with 1×PBS and resuspended to an OD0.5 in either YPD medium or YP (no carbon source) in the presence of the drugs (n=3) for 4 h at 30° C. The cells were then stained and immediately read by flow cytometry. One-way ANOVA and Tukey's test were used to calculate the difference between drug treatments among cells with arrested growth.
(In general: In flow cytometry, cells or beads pass a laser one at a time.)
In the case of `COS(C)(=O)=O` [MMS, methyl methanesulfonate], the “cell leakage (propidium iodide uptake)” value is given as “did not”. Regarding `CC[C@H](C)C[C@H](C)CCCCCCCCC(=O)N[C@H]1C[C@@H](O)[C@@H](NCCN)NC(=O)[C@@H]2[C@@H](O)CCN2C(=O)[C@H]([C@H](O)CCN)NC(=O)[C@H]([C@H](O)[C@@H](O)c2ccc(O)cc2)NC(=O)[C@@H]2C[C@@H](O)CN2C(=O)[C@H]([C@@H](C)O)NC1=O` [caspofungin], the “cell leakage (propidium iodide uptake)” value is listed as “caused rapid cell leakage”.

Staying with this experiment, now noted: arrested cells without carbon source (YP), 4 h.
For the compound `CC[C@H](C)C[C@H](C)CCCCCCCCC(=O)N[C@H]1C[C@@H](O)[C@@H](NCCN)NC(=O)[C@@H]2[C@@H](O)CCN2C(=O)[C@H]([C@H](O)CCN)NC(=O)[C@H]([C@H](O)[C@@H](O)c2ccc(O)cc2)NC(=O)[C@@H]2C[C@@H](O)CN2C(=O)[C@H]([C@@H](C)O)NC1=O` [caspofungin], the “cell leakage (propidium iodide uptake)” value was “diminished”.

A further experiment concerns yeast.
Test: not given
The following applies: against yeast, literature values; cited from earlier work.
The IC50 is the concentration that inhibits the measured activity by half. Take `O=C1C2CC=CCC2C(=O)N1SC(Cl)(Cl)Cl` (stereo not drawn) [captan]: the IC50 is 19 µM. On to `O=S(=O)([O-])[O-].[Cu+2]` [copper sulfate], for which the IC50 is 2400 µM.

With `CO/C=C(/C(=O)OC)c1ccccc1COc1cccc(C(F)(F)F)n1` [picoxystrobin], the IC50 is 308 µM.

With `NC(=O)OC[C@H](O)[C@@H](O)[C@H](N)C(=O)N[C@H](C(=O)O)[C@H]1O[C@@H](n2cc(C(=O)O)c(=O)[nH]c2=O)[C@H](O)[C@@H]1O` [polyoxin D], the IC50 was 340 µM.

As for `CCCN(CCOc1c(Cl)cc(Cl)cc1Cl)C(=O)n1ccnc1` [prochloraz], the IC50 was 132 µM. Turning to `c1ccc2[nH]c(-c3cscn3)nc2c1` [thiabendazole], the IC50 is 607 µM.
